Reference: the NIST ThermoML archive (doi:10.1016/j.jct.2018.08.013)
Several values for one entry are separate records, joined by “and”; a condition that tells them apart may be missing. Identical values can stand only once.

Experiments:
[1] = xn = mol fraction of the nth substance listed; details: 298 K; 100 kPa; Crystal of intercomponent compound 1; X-ray diffraction; x2 = 0.542
[2] = specific heat capacity at constant pressure; xn = mol fraction of the nth substance listed; details: 100 kPa, Crystal of intercomponent compound 1, x2 = 0.542

[Te] [tellurium] + [In]
Details	mass density [kg/m3]
[1]	6307

[2]
Details	specific heat capacity
10.11 K, relaxation calorimetry	13.3 J/K/kg and 13.26 J/K/kg
10.12 K, relaxation calorimetry	13.3 J/K/kg
12.12 K, relaxation calorimetry	20.6 J/K/kg and 20.59 J/K/kg
12.13 K, relaxation calorimetry	20.65 J/K/kg
14.14 K, relaxation calorimetry	28.68 J/K/kg and 28.67 J/K/kg and 28.69 J/K/kg
16.15 K, relaxation calorimetry	36.99 J/K/kg
16.16 K, relaxation calorimetry	36.96 J/K/kg and 37.07 J/K/kg
18.17 K, relaxation calorimetry	45.25 J/K/kg
18.18 K, relaxation calorimetry	45.21 J/K/kg
20.18 K, relaxation calorimetry	53.21 J/K/kg
20.19 K, relaxation calorimetry	53.01 J/K/kg and 53.25 J/K/kg
22.2 K, relaxation calorimetry	60.8 J/K/kg and 61.01 J/K/kg and 60.84 J/K/kg
24.22 K, relaxation calorimetry	68.02 J/K/kg and 68.1 J/K/kg
26.23 K, relaxation calorimetry	74.95 J/K/kg
26.24 K, relaxation calorimetry	74.91 J/K/kg and 74.95 J/K/kg
28.25 K, relaxation calorimetry	81.26 J/K/kg and 81.31 J/K/kg
30.27 K, relaxation calorimetry	87.16 J/K/kg
35.3 K, relaxation calorimetry	101.02 J/K/kg
35.31 K, relaxation calorimetry	100.94 J/K/kg and 100.9 J/K/kg
40.34 K, relaxation calorimetry	112.78 J/K/kg and 112.99 J/K/kg
40.35 K, relaxation calorimetry	112.74 J/K/kg
45.38 K, relaxation calorimetry	122.93 J/K/kg and 123.09 J/K/kg
45.39 K, relaxation calorimetry	122.76 J/K/kg
50.41 K, relaxation calorimetry	132.54 J/K/kg
50.42 K, relaxation calorimetry	132.13 J/K/kg
50.43 K, relaxation calorimetry	132.04 J/K/kg
55.43 K, relaxation calorimetry	140.42 J/K/kg
55.45 K, relaxation calorimetry	139.92 J/K/kg
55.47 K, relaxation calorimetry	139.72 J/K/kg
60.47 K, relaxation calorimetry	146.93 J/K/kg
60.49 K, relaxation calorimetry	146.4 J/K/kg
60.51 K, relaxation calorimetry	146.44 J/K/kg
65.49 K, relaxation calorimetry	153.78 J/K/kg
65.53 K, relaxation calorimetry	152.79 J/K/kg
65.56 K, relaxation calorimetry	152.5 J/K/kg
70.51 K, relaxation calorimetry	159.39 J/K/kg
70.57 K, relaxation calorimetry	158.16 J/K/kg
70.61 K, relaxation calorimetry	157.78 J/K/kg
75.55 K, relaxation calorimetry	164.01 J/K/kg
75.61 K, relaxation calorimetry	162.86 J/K/kg
75.65 K, relaxation calorimetry	162.69 J/K/kg
80.58 K, relaxation calorimetry	169.46 J/K/kg
80.64 K, relaxation calorimetry	167.77 J/K/kg
80.7 K, relaxation calorimetry	167.02 J/K/kg
85.6 K, relaxation calorimetry	173.13 J/K/kg
85.68 K, relaxation calorimetry	172.14 J/K/kg
85.74 K, relaxation calorimetry	170.65 J/K/kg
90.65 K, relaxation calorimetry	176.64 J/K/kg
90.72 K, relaxation calorimetry	175.44 J/K/kg
90.77 K, relaxation calorimetry	175.19 J/K/kg
95.67 K, relaxation calorimetry	179.52 J/K/kg
95.75 K, relaxation calorimetry	178.16 J/K/kg
95.8 K, relaxation calorimetry	177.96 J/K/kg
100.78 K, relaxation calorimetry	180.43 J/K/kg
100.82 K, relaxation calorimetry	179.89 J/K/kg
100.89 K, relaxation calorimetry	181.75 J/K/kg
106.78 K, relaxation calorimetry	184.18 J/K/kg
106.86 K, relaxation calorimetry	182.66 J/K/kg
106.88 K, relaxation calorimetry	182.86 J/K/kg
113.77 K, relaxation calorimetry	186.45 J/K/kg
113.82 K, relaxation calorimetry	185.55 J/K/kg
113.85 K, relaxation calorimetry	185.13 J/K/kg
120.77 K, relaxation calorimetry	188.39 J/K/kg
120.8 K, relaxation calorimetry	188.64 J/K/kg
120.84 K, relaxation calorimetry	187.28 J/K/kg
127.76 K, relaxation calorimetry	189.79 J/K/kg
127.78 K, relaxation calorimetry	190.45 J/K/kg
127.81 K, relaxation calorimetry	189.51 J/K/kg
134.73 K, relaxation calorimetry	191.98 J/K/kg
134.75 K, relaxation calorimetry	191.11 J/K/kg
134.77 K, relaxation calorimetry	191.32 J/K/kg
141.7 K, relaxation calorimetry	193.51 J/K/kg
141.73 K, relaxation calorimetry	192.35 J/K/kg
141.74 K, relaxation calorimetry	193.09 J/K/kg
148.67 K, relaxation calorimetry	194.87 J/K/kg
148.71 K, relaxation calorimetry	194.62 J/K/kg and 193.75 J/K/kg
155.61 K, relaxation calorimetry	195.65 J/K/kg
155.64 K, relaxation calorimetry	195.94 J/K/kg and 195.82 J/K/kg
162.58 K, relaxation calorimetry	197.26 J/K/kg
162.62 K, relaxation calorimetry	197.38 J/K/kg
169.55 K, relaxation calorimetry	198.54 J/K/kg
169.58 K, relaxation calorimetry	198.37 J/K/kg
169.59 K, relaxation calorimetry	198.42 J/K/kg
176.53 K, relaxation calorimetry	198.87 J/K/kg
176.56 K, relaxation calorimetry	198.83 J/K/kg
176.57 K, relaxation calorimetry	198.87 J/K/kg
183.5 K, relaxation calorimetry	199.69 J/K/kg
183.54 K, relaxation calorimetry	199.69 J/K/kg
190.47 K, relaxation calorimetry	200.4 J/K/kg
190.51 K, relaxation calorimetry	200.44 J/K/kg and 200.48 J/K/kg
197.43 K, relaxation calorimetry	200.56 J/K/kg
197.47 K, relaxation calorimetry	200.68 J/K/kg and 200.77 J/K/kg
204.39 K, relaxation calorimetry	201.18 J/K/kg
204.43 K, relaxation calorimetry	201.3 J/K/kg
204.44 K, relaxation calorimetry	201.34 J/K/kg
211.34 K, relaxation calorimetry	201.67 J/K/kg
211.38 K, relaxation calorimetry	201.76 J/K/kg
211.39 K, relaxation calorimetry	201.59 J/K/kg
218.29 K, relaxation calorimetry	201.76 J/K/kg
218.34 K, relaxation calorimetry	201.92 J/K/kg
225.27 K, relaxation calorimetry	202.09 J/K/kg
225.31 K, relaxation calorimetry	202.29 J/K/kg and 202.17 J/K/kg
226.53 K, relaxation calorimetry	200.85 J/K/kg
226.54 K, relaxation calorimetry	201.01 J/K/kg
231.55 K, relaxation calorimetry	201.3 J/K/kg
231.56 K, relaxation calorimetry	201.22 J/K/kg
232.22 K, relaxation calorimetry	202.38 J/K/kg
232.27 K, relaxation calorimetry	202.33 J/K/kg
232.28 K, relaxation calorimetry	202.29 J/K/kg
236.56 K, relaxation calorimetry	201.39 J/K/kg
236.57 K, relaxation calorimetry	201.47 J/K/kg
239.17 K, relaxation calorimetry	202 J/K/kg
239.24 K, relaxation calorimetry	202.09 J/K/kg and 202.05 J/K/kg
241.58 K, relaxation calorimetry	201.67 J/K/kg
241.6 K, relaxation calorimetry	201.26 J/K/kg
246.14 K, relaxation calorimetry	201.88 J/K/kg
246.19 K, relaxation calorimetry	202.09 J/K/kg and 202.05 J/K/kg
246.51 K, relaxation calorimetry	201.51 J/K/kg
246.52 K, relaxation calorimetry	201.92 J/K/kg
251.63 K, relaxation calorimetry	202.09 J/K/kg
251.64 K, relaxation calorimetry	202 J/K/kg
253.09 K, relaxation calorimetry	202.17 J/K/kg
253.15 K, relaxation calorimetry	202.13 J/K/kg and 202.17 J/K/kg
256.55 K, relaxation calorimetry	202.29 J/K/kg
256.56 K, relaxation calorimetry	202.17 J/K/kg
260.04 K, relaxation calorimetry	202.25 J/K/kg
260.1 K, relaxation calorimetry	202.25 J/K/kg and 202.29 J/K/kg
261.55 K, relaxation calorimetry	202.25 J/K/kg
261.57 K, relaxation calorimetry	202.13 J/K/kg
266.18 K, Extra sensitive DSC	203.98 J/K/kg
270 K, Extra sensitive DSC	203.98 J/K/kg
275 K, Extra sensitive DSC	204.48 J/K/kg
280 K, Extra sensitive DSC	204.89 J/K/kg
285 K, Extra sensitive DSC	205.18 J/K/kg
290 K, Extra sensitive DSC	205.59 J/K/kg
295 K, Extra sensitive DSC	206.09 J/K/kg
300 K, Extra sensitive DSC	206.5 J/K/kg
305 K, Extra sensitive DSC	207.08 J/K/kg
310 K, Extra sensitive DSC	207.28 J/K/kg
315 K, Extra sensitive DSC	207.28 J/K/kg
320 K, Extra sensitive DSC	207.28 J/K/kg
325 K, Extra sensitive DSC	207.49 J/K/kg
328.56 K, Extra sensitive DSC	207.7 J/K/kg
332.56 K, Extra sensitive DSC	209.1 J/K/kg
335.17 K, Extra sensitive DSC	209.43 J/K/kg
336.9 K, Extra sensitive DSC	209.39 J/K/kg
339.51 K, Extra sensitive DSC	209.35 J/K/kg
342.11 K, Extra sensitive DSC	209.39 J/K/kg
344.71 K, Extra sensitive DSC	209.18 J/K/kg
347.32 K, Extra sensitive DSC	209.02 J/K/kg
349.92 K, Extra sensitive DSC	208.77 J/K/kg
352.53 K, Extra sensitive DSC	208.4 J/K/kg
355.13 K, Extra sensitive DSC	208.48 J/K/kg
357.73 K, Extra sensitive DSC	208.27 J/K/kg
358.6 K, Extra sensitive DSC	208.15 J/K/kg
